Measurements: US10376555B2, “Identification of cyclic peptide agonists of galanin receptor 2 and 3 guided by spexin solution structure” (Hong Kong Baptist University, priority 2017, dated 2019)
Positions of bridges follow the written chain, without caps; N, C: chain ends. Residues, ends and D or L forms follow the SMILES beside them. No end group written: not given here.

Key:
hGalR1 = target: T1, hGalR1 (Homo sapiens, UniProt P47211); assay: SRE-Luc receptor activation assay, hGalR1; format: cell-based; conditions: for hGalR1 EC50: HEK293 cells transfected with hGalR1, Gqi, SRE-Luc, 6 h treatment, full-dose; for hGalR1 Emax: Relative to hGAL Emax
T1 sequence (P47211 1-349): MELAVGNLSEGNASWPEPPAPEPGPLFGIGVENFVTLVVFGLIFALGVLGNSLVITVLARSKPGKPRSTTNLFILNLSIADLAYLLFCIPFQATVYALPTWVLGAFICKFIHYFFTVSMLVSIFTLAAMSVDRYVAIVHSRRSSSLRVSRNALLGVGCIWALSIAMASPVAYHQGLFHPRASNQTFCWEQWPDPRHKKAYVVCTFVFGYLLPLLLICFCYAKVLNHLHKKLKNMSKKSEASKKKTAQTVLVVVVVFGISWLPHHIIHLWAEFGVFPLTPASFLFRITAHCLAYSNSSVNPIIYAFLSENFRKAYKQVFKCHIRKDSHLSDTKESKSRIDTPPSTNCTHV

hGalR2 = target: T2, hGalR2 (Homo sapiens, UniProt O43603); assay: SRE-Luc receptor activation assay, hGalR2; format: cell-based; conditions: for hGalR2 Emax: Relative to hSPX Emax; for activity on GalR2, in words: full-dose SRE-Luc; for effect of cysteine mutation on receptor activation of GalR2: single dose (1 μM, 6 hours), compared with wild type hSPX
T2 construct: host or cells: HEK293
T2 sequence (O43603 1-387): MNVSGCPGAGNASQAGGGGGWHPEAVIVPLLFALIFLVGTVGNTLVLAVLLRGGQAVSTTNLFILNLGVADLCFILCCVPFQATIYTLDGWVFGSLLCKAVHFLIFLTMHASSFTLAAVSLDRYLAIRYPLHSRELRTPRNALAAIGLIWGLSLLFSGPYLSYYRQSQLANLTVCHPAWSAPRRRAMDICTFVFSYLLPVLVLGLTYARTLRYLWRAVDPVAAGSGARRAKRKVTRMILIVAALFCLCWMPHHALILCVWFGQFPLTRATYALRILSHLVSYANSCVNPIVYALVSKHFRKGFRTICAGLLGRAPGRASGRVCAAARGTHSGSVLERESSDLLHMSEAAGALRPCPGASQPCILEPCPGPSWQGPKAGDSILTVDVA

hGalR3 = target: T3, hGalR3 (Homo sapiens, UniProt O60755); assay: SRE-Luc receptor activation assay, hGalR3; format: cell-based; conditions: for hGalR3 Emax: Relative to hSPX Emax; for activity on GalR3, in words: full-dose SRE-Luc; for effect of cysteine mutation on receptor activation of GalR3: single dose (1 μM, 6 hours), compared with wild type hSPX
T3 construct: host or cells: HEK293
T3 sequence (O60755 1-368): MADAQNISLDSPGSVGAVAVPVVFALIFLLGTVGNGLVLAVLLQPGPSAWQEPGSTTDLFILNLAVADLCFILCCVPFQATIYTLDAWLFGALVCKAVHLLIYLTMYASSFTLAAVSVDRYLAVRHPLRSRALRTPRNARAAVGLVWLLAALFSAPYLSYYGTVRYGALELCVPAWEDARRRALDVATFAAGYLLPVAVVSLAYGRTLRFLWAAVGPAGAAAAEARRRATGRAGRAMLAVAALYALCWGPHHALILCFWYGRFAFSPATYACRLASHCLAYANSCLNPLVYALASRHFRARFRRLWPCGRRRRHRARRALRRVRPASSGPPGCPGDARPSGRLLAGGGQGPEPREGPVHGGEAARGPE

[1] = In vitro serum stability assay (RP-HPLC); format: in vitro ADME, rat; conditions: rat serum in RPMI 1640, 37° C., 100 μg/mL; read-out: serum half-life (t1/2)
Protocol: The serum stability of CSAs was tested using an in vitro assay followed by reverse-phase high-performance liquid chromatography (RP-HPLC) analysis (FIGS. 33-38).
750 μL RPMI medium 1640 (Thermo Fisher Scientific) was mixed with […] rat serum, and incubated at 37° C. for 15 min before adding peptide. The peptide dissolved in water was added into the reaction buffer to make a final concentration of 100 μg/mL. At each time point (5, 15, 30, 60, 120, 240, and 480 min), 100 μL reaction solution were taken, and mixed with 200 μL 6% trichloroacetic acid (TCA, Sigma-Aldrich). The resulting cloudy solution was cooled at 4° C. for 15 min, and centrifuged for 10 mins at 13,000 rpm. The supernatant was then analyzed by RP-HPLC. The extent of intact peptide was calculated based on the peak area and was normalized using a control sample.

Row | Compound | hGalR1 EC50 (hGalR1) | hGalR1 Emax (hGalR1) | hGalR2 Emax (hGalR2) | activity on GalR1, in words (hGalR1; full-dose SRE-Luc) | EC50 (hGalR2) [nM] | hGalR3 EC50 (hGalR3; HEK293 cells transfected with hGalR3, Gqi, SRE-Luc, 6 h treatment, full-dose) | hGalR3 Emax (hGalR3) | activity on GalR3, in words (hGalR3) | half-life at 100 μg/mL [1] [min] | EC50 (hGalR3) [nM] | activity on GalR2, in words (hGalR2) | effect of cysteine mutation on receptor activation of GalR2 (hGalR2) | effect of cysteine mutation on receptor activation of GalR3 (hGalR3)
1 | CSCC[C@@H]1NC(=O)[C@H](C)NC(=O)[C@H](CCC(N)=O)NC(=O)[C@@H](NC(=O)[C@@H](NC(=O)[C@H](Cc2c[nH]c3ccccc23)NC(=O)[C@@H](N)CC(N)=O)[C@@H](C)O)CSSC[C@@H](C(=O)N[C@@H](CCC(N)=O)C(N)=O)NC(=O)CNC(=O)[C@H](CCCCN)NC(=O)[C@H](CC(C)C)NC(=O)[C@H](Cc2ccc(O)cc2)NC(=O)[C@H](CC(C)C)NC1=O [LH102] (H-NWTCQAMLYLKGCQ-NH2; disulfide 4-13; N-terminus assumed) | N.M. | N.M. | 1.08 |  |  |  |  |  |  |  |  |  | 
2 | CC(=O)N[C@H]1CSSC[C@@H](C(=O)N[C@@H](Cc2c[nH]cn2)C(=O)N[C@@H](C)C(=O)N[C@H](C(N)=O)C(C)C)NC(=O)CNC(=O)[C@H](CC(C)C)NC(=O)[C@H](CC(C)C)NC(=O)[C@H](Cc2ccc(O)cc2)NC(=O)CNC(=O)[C@H](C)NC(=O)[C@H](CO)NC(=O)[C@H](CC(N)=O)NC(=O)[C@H](CC(C)C)NC(=O)[C@H]([C@@H](C)O)NC(=O)[C@H](Cc2c[nH]c3ccccc23)NC1=O [LH201 (Ac)] (Ac-CWTLNSAGYLLGCHAV-NH2; disulfide 1-13) | N.M. | 0.22 | 1.16 | No activity | 480 | N.M. | 0.20 | No activity | 51.9 |  |  |  | 
3 | CC(C)C[C@H](NC(=O)[C@H](CC(C)C)NC(=O)[C@H](Cc1ccc(O)cc1)NC(=O)CNC(=O)[C@H](C)NC(=O)[C@H](CO)NC(=O)[C@H](CC(N)=O)NC(=O)[C@H](CC(C)C)NC(=O)[C@@H](NC(=O)[C@H](Cc1c[nH]c2ccccc12)NC(=O)CN)[C@@H](C)O)C(=O)NCC(=O)N1CCC[C@H]1C(=O)N[C@@H](Cc1c[nH]cn1)C(=O)N[C@@H](C)C(=O)N[C@H](C(N)=O)C(C)C [hGAL (1-16), reference compound] |  |  | 1.02 |  |  |  | 0.45 |  | 14.1 | > 10000 |  |  | 
4 | CC(C)C[C@H](NC(=O)CNC(=O)[C@H](CC(N)=O)NC(=O)[C@H](CCCCN)NC(=O)[C@H](CC(=O)O)NC(=O)[C@H](CO)NC(=O)[C@H](Cc1ccccc1)NC(=O)[C@H](CO)NC(=O)[C@H](CCCNC(=N)N)NC(=O)[C@H](Cc1c[nH]cn1)NC(=O)[C@H](CC(N)=O)NC(=O)CNC(=O)[C@@H](NC(=O)[C@H](C)NC(=O)[C@H](Cc1c[nH]cn1)NC(=O)[C@@H]1CCCN1C(=O)CNC(=O)[C@H](CC(C)C)NC(=O)[C@H](CC(C)C)NC(=O)[C@H](Cc1ccc(O)cc1)NC(=O)CNC(=O)[C@H](C)NC(=O)[C@H](CO)NC(=O)[C@H](CC(N)=O)NC(=O)[C@H](CC(C)C)NC(=O)[C@@H](NC(=O)[C@H](Cc1c[nH]c2ccccc12)NC(=O)CN)[C@@H](C)O)C(C)C)C(=O)N[C@H](C(=O)N[C@@H](CO)C(N)=O)[C@@H](C)O [hGAL, reference compound] |  |  | 0.94 |  |  |  | 0.68 |  |  |  |  |  | 
5 | CSCC[C@H](NC(=O)[C@H](C)NC(=O)[C@H](CCC(N)=O)NC(=O)[C@@H]1CCCN1C(=O)[C@@H](NC(=O)[C@H](Cc1c[nH]c2ccccc12)NC(=O)[C@@H](N)CS)[C@@H](C)O)C(=O)N[C@@H](CC(C)C)C(=O)N[C@@H](Cc1ccc(O)cc1)C(=O)N[C@@H](CC(C)C)C(=O)N[C@@H](CCCCN)C(=O)NCC(=O)N[C@@H](C)C(=O)N[C@@H](CCC(N)=O)C(N)=O [hSPX (C1)] (H-CWTPQAMLYLKGAQ-NH2; N-terminus assumed) | N.M. | N.M. | 1.05 |  |  |  | 1.00 | little effect on the potency |  |  | little effect on the potency | minimum effects | minimum effects
6 | CSCC[C@H](NC(=O)[C@H](C)NC(=O)[C@H](CCC(N)=O)NC(=O)[C@H](CS)NC(=O)[C@@H](NC(=O)[C@H](Cc1c[nH]c2ccccc12)NC(=O)[C@@H](N)CC(N)=O)[C@@H](C)O)C(=O)N[C@@H](CC(C)C)C(=O)N[C@@H](Cc1ccc(O)cc1)C(=O)N[C@@H](CC(C)C)C(=O)N[C@@H](CCCCN)C(=O)NCC(=O)N[C@@H](C)C(=O)N[C@@H](CCC(N)=O)C(N)=O [hSPX (C4)] (H-NWTCQAMLYLKGAQ-NH2; N-terminus assumed) | N.M. | N.M. | 0.98 |  |  |  | 0.91 | little effect on the potency |  |  | little effect on the potency | minimum effects | minimum effects
7 | CSCC[C@H](NC(=O)[C@H](C)NC(=O)[C@H](CCC(N)=O)NC(=O)[C@@H]1CCCN1C(=O)[C@@H](NC(=O)[C@H](Cc1c[nH]c2ccccc12)NC(=O)[C@@H](N)CC(N)=O)[C@@H](C)O)C(=O)N[C@@H](CC(C)C)C(=O)N[C@@H](Cc1ccc(O)cc1)C(=O)N[C@@H](CC(C)C)C(=O)N[C@@H](CCCCN)C(=O)NCC(=O)N[C@@H](CS)C(=O)N[C@@H](CCC(N)=O)C(N)=O [hSPX (C13)] (H-NWTPQAMLYLKGCQ-NH2; N-terminus assumed) | N.M. | N.M. | 0.87 |  |  |  | 0.88 | little effect on the potency |  |  | little effect on the potency | minimum effects | minimum effects
8 | C10: hSPX mutant with single mutation to cysteine at position 10 (NWTPQAMLYCKGAQ-NH2) |  |  |  |  |  |  |  |  |  |  |  | severely impaired bioactivity | severely impaired bioactivity
9 | C12: hSPX mutant with single mutation to cysteine at position 12 (NWTPQAMLYLKCAQ-NH2) |  |  |  |  |  |  |  |  |  |  |  | severely impaired bioactivity | severely impaired bioactivity
10 | C14: hSPX mutant with single mutation to cysteine at position 14 (NWTPQAMLYLKGAC-NH2) |  |  |  |  |  |  |  |  |  |  |  | severely impaired bioactivity | severely impaired bioactivity
